Experiments:
[1] = test system: isolated left auricle of the Guinea pig; experiment: inotropic activity: contractile force of isolated, electrically stimulated left auricle (Lumley, Broadley and Levy technique; cumulative method of Van Rossum); details: for EC50 / Emax: Cavia porcellus; for EC50 / Inotropic action pD2: 36° C., cumulative concentrations, minimum of three dose-action curves; for EC50: read-out: Inotropic action pD2 (converted); for Emax / Inotropic action α (intrinsic activity): relative to dopamine; for Emax: α=1, read-out: Inotropic action α (intrinsic activity); for Inotropic action α (intrinsic activity): α=1
Description: The technique used is that of P. Lumley, K. J. Broadley and G. P. Levy described in Cardiovascular Research, 11, 17-25, 1977. This technique is used to study the β1 cardiac inotrope function; the β1 receptors being cardiac in the Guinea pig as in man, the results obtained with the Guinea pig are applicable to man.
Guinea pigs of either sex are killed by a knock and bled; the left auricle is rapidly removed and immediately immersed in a Kreibs-Henseleit solution, the temperature being thermostatically maintained at 36° C. and aerated by a mixture of O2 and CO2 (95% and 5%). Two linen threads are attached to its ends: one is used to make contact between the auricle and a silver negative stimulating electrode, the other serves to connect the preparation to an isometric myograph (F-50 NARCO) and then to a recording system (Physiograph type M-K III NARCO).
Some 60 minutes are needed to ensure stability of the preparation.
Throughout the test, the auricle is activated electrically by a neurostimulator (Equipment Industriel II): voltage: supramaximum--width: 5 milli/sec.--frequency: 90 to 120 beats per minute.
Agonists, reference substances or compounds according to the invention, are added to the nutrient medium using the cumulative method of Van Rossum (Arch. Inter. Pharmacodyn., 143, 299-330, 1963). After adding each given amount of agonists, three minutes are allowed to pass before a further given amount of the product under study is added according to the method described above. The response of the organ to each concentration was assessed by the resultant increase in contractile force measured in gram. This was expressed as a percentage of the maximum increase (100%) for each compound and a dose-action curve was plotted. The agonist effect was quantified by calculating pD2 (E. J. Ariens and J. M. Van Rossum., Arch. Intern. Pharmacodyn. CX, No. 2, 2, 19 and Arch. Inter. Pharmacodyn. 143, 299-330, 1963) which characterizes the affinity of the compound under test for the receptors.
The agonist effect was also characterized by the intrinsic activity […] which defines the relative power of the agonist with respect to a standard which, in the tests, was dopamine, the intrinsic activity of which is taken arbitrarily to be α=1.
The results obtained are shown in table II below, it being assumed that:
the higher the value of pD2 and the more marked the affinity of the compound under test for the receivers, and
the higher the value of α, the better is the intrinsic activity.

[2] = acute toxicity, intravenous, male mice (LD50, Litchfield and Wilcoxon); details: mouse, in vivo; for LD50 at 168 h: i.v., 10 animals per group, 7 days observation, 95% confidence limit in brackets
Experimental: A toxicological study was also carried out on the compounds according to the invention.
More particularly, the acute toxicity was studied by introduction into the veins of male mice (10 animals per group), E.O.P.S. of the Swiss strain (bred by EVIC-CEBA).
The compounds to be tested were rendered soluble in physiological serum at variable concentrations and the solution obtained injected into the veins in an amount of 10 ml per kg of body weight. Administration was carried out in 20 seconds.
The animals were kept under clinical observation for three hours after administration and then daily for 7 days.
The lethal doses 50 (LD50) were calculated using the method of Litchfield and Wilcoxon (J. Pharmacol. Exp. Therap., 96-99, 1949) on the basis of the different mortality rates observed.

Structure (SMILES)	EC50 [1] [µM]	Emax [1] [%]	LD50 at 168 h [2] [mg/kg]	other results
CC1CN(CC2CC2)CCN1CCN1CCCCC1 (centres unmarked) [compound 27]	47.9	40	155	
CC1CN(CC2CC2)CCN1CCN1CCOCC1 (centres unmarked) [compound 29]			250	
CC1CN(CC2CC2)CCN1 (centres unmarked) [compound 23]	178	75	280	
COc1cc(C(=O)N2CCN(CC3CC3)CC2)cc(OC)c1OC [compound 16]				Inotropic action pD2 [1]: 5.06; Inotropic action α (intrinsic activity) [1]: 0.52; mortality at 168 h ([2]; 100 mg/kg i.v.): 30%
O=C(C=Cc1cccc(C(F)(F)F)c1)N1CCN(CC2CC2)CC1 [compound 19]			95	
FC(F)(F)c1cccc(N2CCN(CC3CC3)CC2)c1 [compound 11]			30	
O=C(c1ccc2c(c1)OCO2)N1CCN(CC2CC2)CC1 [compound 15]	363	88	155	
CCOC(=O)Oc1c(OC)cc(C(=O)N2CCN(CC3CC3)CC2)cc1OC [compound 18]			225	
COc1cc(C=CC(=O)N2CCN(CC3CC3)CC2)cc(OC)c1OC [compound 20]	776	49	52	
CC1CN(CC2CC2)CCN1CCCN1CCCCC1 (centres unmarked) [compound 32]	0.525	12	162	
CC1CN(CC2CC2)CCN1Cc1csc2ccccc12 (centres unmarked) [compound 37]			40	
OCCN1CCN(CC2CC2)CC1 [Code No. 5]			460	
CC(=O)c1ccc(N2CCN(CC3CC3)CC2)cc1 [compound 12]	55	82	90	
CCCCCN1CCN(CC2CC2)CC1 [Code No. 4]			37.5	
CC(CN1CCN(CC2CC2)CC1)C(=O)NCc1ccccc1 (centres unmarked) [compound 8]	53.7	57	245	
CC(CN1CCN(CC2CC2)CC1)C(=O)O (centres unmarked) [compound 7]			190	
CCN(CC)CCN1CCN(CC2CC2)CC1C (centres unmarked) [compound 25]			150	
COc1ccc(OCC(=O)N2CCN(CC3CC3)CC2)cc1 [compound 21]	22.4	69	115	
CC1CN(CC2CC2)CCN1Cc1ccc2c(c1)OCO2 (centres unmarked) [compound 35]	5.25	17	77	

Structure (SMILES)	EC50 [1] [µM]	Emax [1] [%]	LD50 at 168 h [2] [mg/kg]	other results
CC1CN(CC2CC2)CCN1CCCN1CCCCCC1 (centres unmarked) [compound 33]			130	
CC1CN(CC2CC2)CCN1CCN1CCCCCC1 (centres unmarked) [compound 28]			95	
CC1CN(CC2CC2)CCN1CCCN1CCOCC1 (centres unmarked) [compound 34]	5.13	24	215	
CCN(CC)CCCN1CCN(CC2CC2)CC1C (centres unmarked) [compound 30]			135	
CC1CN(CC2CC2)CCN1Cc1ccc2c(c1Cl)OCO2 (centres unmarked) [compound 36]			65	
CN1CCN(CC2CC2)CC1 [Code No. 2]	112	48	320	
c1ccc(CN2CCN(CC3CC3)CC2)cc1 [compound 14]			46	
CC1CN(CC2CC2)CCN1CC1CC1 (centres unmarked) [compound 13]	3.63	36	104	
CC1CN(CC2CC2)CCN1CCN1CCCC1 (centres unmarked) [compound 26]	14.1	32	158	
C1CC1CN1CCN(CC2CC2)CC1 [3a]	30.2	69	110	
COc1cc(C(=O)N2CCN(CC3CC3)CC2)cc(OC)c1OC [compound 17]			245	Inotropic action pD2 [1]: 3.50; Inotropic action α (intrinsic activity) [1]: 0.19
CC1CN(CC2CC2)CCN1CCCN1CCCC1 (centres unmarked) [compound 31]	26.9	25	165	
O=C(COc1ccc(F)cc1)N1CCN(CC2CC2)CC1 [compound 22]	17.8	48	100	
COc1ccccc1N1CCN(CC2CC2)CC1 [compound 10]			34	
CCOC(=O)N1CCN(CC2CC2)CC1 [6a]	1260	58	41	
COc1cc(C(=O)N2CCN(CC3CC3)CC2C)cc(OC)c1OC(C)=O (centres unmarked) [compound 39]	25.7	69	225	
CC1CN(CC2CC2)CCN1CCN(C)C (centres unmarked) [compound 24]			200	
COc1cc(C(=O)N2CCN(CC3CC3)CC2C)cc(OC)c1OC (centres unmarked) [compound 38]			130	
